We go through three molecules from patent US10144713B1, “Bis-cyclic guanidines as antibacterial agents” (UNIVERSITY OF SOUTH FLORIDA, priority 2017, dated 2018).

The structures appear in SMILES notation. Where two headings read alike, the source gives them in different places.

The test system of one data set is E. coli (ATCC 25922). Put plainly: MIC against E. coli. The format is cell-based. Conditions: Escherichia coli, ATCC25922; Gram −; 16 h, 37° C. The method, then: (§1) Minimum Inhibitory Concentrations (MICs) Against Bacteria.
(§2) The antimicrobial activity of the compounds was tested on the following six bacteria strains: K. pneumoniae (ATCC 13383), P. aeruginosa (ATCC27853), E. coli (ATCC 25922), vancomycin-resistant Enterococcus faecalis(ATCC 700802), Methicillin-resistant S. aureus (MRSA, ATCC 33591), Methicillin-resistant S. epidermidis (MRSE, RP62A). The procedures were followed as reported previously (Hancock et al., Immunobiology 2006, 211, 315-322). Briefly, a single colony of each bacterium was inoculated in 3 mL TSB medium and incubated overnight at 37° C. Then the bacteria culture was diluted at 1:100 and the bacteria were allowed to grow to mid-logarithmic phase. Next, 50 μL of 2-fold serial dilutions of compounds (0.1-25 μg/mL) were added the 96-well plate containing aliquots of 50 μL of bacteria suspension (1×10^6 CFU/mL) in each well. The mixture was incubated at 37° C. for 16 h, and their absorption at 600 nm wavelength was read on a Biotek Synergy HT microtiter plate reader. […] The experiments were repeated at least three times with duplicates each time. HC50 means the concentration causing 50% hemolysis.

Data set [1] has as its system P. aeruginosa (ATCC27853). Put plainly: MIC against P. aeruginosa. Format: cell-based. The conditions noted are these: Pseudomonas aeruginosa, ATCC27853; Gram −; 16 h, 37° C. Here is the method: as §1, §2
The subject of data set [2] is K. pneumoniae (ATCC 13383). Kind of data set: MIC against K. pneumoniae. The format is cell-based. Conditions: Klebsiella pneumoniae, ATCC13383; Gram −; 16 h, 37° C. Here is the method:
as §1, §2

In data set [3] the test system is Methicillin-resistant S. aureus (MRSA, ATCC 33591). Put plainly: MIC against MRSA. The format is cell-based. Conditions: Staphylococcus aureus; Gram +; 16 h, 37° C. Here is the method: as §1, §2
The test system of data set [4] is Methicillin-resistant S. epidermidis (MRSE, RP62A). Kind of data set: MIC against MRSE. The conditions noted are these: Staphylococcus epidermidis, MRSE; Gram +; 16 h, 37° C. Format: cell-based. Here is the method: as §1, §2
The subject of data set [5] is vancomycin-resistant Enterococcus faecalis (ATCC 700802). Put plainly: MIC against VRE. Format: cell-based. Conditions: Gram +; 16 h, 37° C. Here is the method: as §1, §2
Data set [6] deals with human red blood cells (hRBCs). Put plainly: Hemolytic assay. The format is cell-based. Conditions: for Hemolysis (HC50): concentration causing 50% hemolysis, hRBCs, 37° C., 1 h. The method, then: The freshly drawn, K2EDTA treated human red blood cells (hRBCs) were washed with 1×PBS buffer, and centrifuged at 3500 rpm for 10 min. The step was repeated until the supernatant became clear. The supernatant was removed, and the RBCs were diluted into 5% v/v suspension. 50 μL of the suspension was incubated with 50 μL of compounds of different concentrations at 37° C. for 1 h. The mixture was centrifuged at 3500 rpm for 10 min. Subsequently, to 30 μL of the supernatant 100 μL PBS was added, and the absorbance of the mixture at 540 nm was read on a Biotek Synergy HT plate reader. The positive control was 2% Triton X-100, and the negative control was 1×PBS alone. The hemolysis activity was calculated by the formula % hemolysis=(Abssample−AbsPBS)/(AbsTriton−AbsPBS)×100%. The experiment was repeated at least three times with duplicates each time.

The test system of data set [7] is six bacteria strains (K. pneumoniae, P. aeruginosa, E. coli, VRE, MRSA, MRSE). Kind of data set: Antimicrobial activity on the panel of six bacteria strains. Format: cell-based. The method, then: as §1, §2
In a further data set the test system is E. coli. Kind of data set: Time-kill study. The format is cell-based. Here is the method:
The killing activity was monitored for the first 2 h. The concentrations for compound 11 were 2×MIC, 4×MIC, and 8×MIC, respectively.
Time-kill studies were conducted to investigate the bacterial killing kinetics of compounds 11 and 12 by using E. Coli. Briefly, the bacteria […] grew to mid-logarithmic phase in TSB medium, from which the suspension (10^6 CFU/ml) was made. The suspension was incubated with different concentrations of 11 or 12 for 10 min, 30 min, 1 h and 2 h respectively. The mixtures were diluted by 10^2 to 10^4 fold and spread on TSB agar plates. After incubation at 37° C. overnight, the colonies on the plates were counted and plotted against the incubation time. […] Cell colonies were counted in agar plates at 12.5, 25, and 50 μg/mL. Compound 11 at the concentration of 12.5 or 25 μg/mL completely removed all bacteria in 2 hours, and at 50 μg/mL it completely removed bacteria in 0.5 hour. Compound 12 killed E. Coli completely in 0.5 hour at the concentration of 12.5 μg/mL.

A further data set concerns S. aureus ATCC 33591. Put plainly: Thigh burden infection model in neutropenic mice. Format: in vivo, CD-1 female mice. Conditions: 5 mg/kg i.v. at 1 and 7 h after infection, thighs harvested at 25 h. Here is the method: Neutropenic mice (n=4 per group) were inoculated in the posterior thigh muscles with S. aureus ATCC 33591 at 1×10^6 CFU per thigh and then treated with compounds 11 and 12 (5 mg/kg per dose) by i.v. bolus injection in the tail vein at 1 and 7 h after infection.
A thigh burden model was employed to evaluate the in vivo anti-infective activity of compounds 11 and 12, in which the thigh muscle of neutropenic mice was inoculated with S. aureus, followed by intravenous (i.v.) administration of corresponding compounds. All protocols and methods associated with animal experiments were approved by University of South Florida (USF) Institutional Animal Care and Use Committee. The in vivo experiment on the mouse model of the thigh burden infection with MRSA was conducted adapted from previously reported protocol. The CD-1 female mice which were 6 to 8 weeks old and around 25 g in weights were used for the study. Neutropenic Mice were induced by injecting cyclophosphamide (150 mg/kg) intraperitoneally twice at 4 and 1 days before bacterial inoculation. One MRSA colony from tryptic soy agar (TSA) cultures was allowed to grow in tryptic soy broth (TSB) overnight at 37° C., then 100 μL culture was withdrawn and diluted with TSB to a total volume of 4 mL, which was subsequently incubated at 37° C. for another 6 h. […] The formed colonies were counted to calculate CFU per thigh.

[8] abbreviates: read-out: MIC against Gram-positive bacteria.
Where [9] appears, read: read-out: MIC for Gram-negative bacteria (except for P. aeruginosa).

For `N=C1N(CC(=O)Nc2ccc(NC(=O)CN3C[C@H](Cc4ccccc4)N(CCCc4ccccc4)C3=N)cc2)C[C@H](Cc2ccccc2)N1CCCc1ccccc1` [Compound 5], the MIC in the data set with E. coli (ATCC 25922) is 1.5 to 3 µg/mL; in [1], 12 to 25 µg/mL; in data set [2], 1.5 to 3 µg/mL; in data set [3] it was 0.33 µg/mL; in data set [4] it was 0.75 µg/mL; in data set [5], 0.75 µg/mL. The MIC in [7] (setting [8]) and in data set [7] (setting [9]) was under 3 µg/mL each time. In addition, the “Hemolysis (HC50)” value in data set [6] was determined as 140 µg/mL.
As to `CCCCCCN1C(=N)N(CC(=O)Nc2ccc(NC(=O)CN3C[C@H](Cc4ccccc4)N(CCCCCC)C3=N)cc2)C[C@@H]1Cc1ccccc1` [Compound 11], the MIC in the data set with E. coli (ATCC 25922) worked out at 1.5 µg/mL; in data set [1], 6 µg/mL; in [2], 1.5 µg/mL; in data set [3], 0.33 µg/mL; in data set [4], 0.75 µg/mL; in data set [5], 0.75 µg/mL. Further, the “selectivity, hemolytic activity against MIC values of MRSA” value in data set [6] turned out to be 769 folds. Further, the “time to completely remove all bacteria” value is 2 h in the data set on E. coli (12.5 μg/mL), 2 h with E. coli (25 μg/mL) and 0.5 h with E. coli (50 μg/mL). In addition, in the data set with S. aureus ATCC 33591, the “decrease in colony-forming unit (CFU) per thigh” value came out at 3 log10 CFU. For the same molecule, the “antibacterial activity against the tested bacteria (in words)” value in data set [7] is “potent and broad-spectrum activity”.
As to `N=C1N(CC(=O)Nc2cccc(NC(=O)CN3C[C@H](Cc4ccccc4)N(CCCc4ccccc4)C3=N)c2)C[C@H](Cc2ccccc2)N1CCCc1ccccc1` [Compound 6], the MIC with E. coli (ATCC 25922) is 3 to 6 µg/mL; in [1], 12 to 25 µg/mL; in [2] it was 3 µg/mL; in data set [3], 1.5 to 3 µg/mL; in [4] it was 1.5 µg/mL; in data set [5], 1.5 µg/mL. The MIC in data set [7] (setting [8]) and in data set [7] (setting [9]) was under 3 µg/mL each time. The “Hemolysis (HC50)” value in [6] is over 250 µg/mL.
